{"source": "patent US20240374524A1", "about": "“INCREASING PERMEATION FOR PRE-GASTRIC ABSORPTION OF ACTIVE PHARMACEUTICAL INGREDIENTS” (Catalent U.K. Swindon Zydis Limited, priority 2023, published 2024)", "key": {"[1]": {"conditions": "cited from earlier work; for HLB value: hydrophilic-lipophilic balance of surfactant"}, "[2]": {"system": "TR146 buccal cell line", "test": "Permeability of Famotidine/permeation agent binary mixes, TR146 cells on Transwell inserts"}, "[3]": {"system": "TR146 buccal cell line", "test": "Permeability of Atenolol/permeation agent binary mixes (Table 11), TR146 cells on Transwell inserts", "conditions": "surfactants 1:1 molar ratio, PF127 and bile salt 2×CMC, citric acid 0.37-1 mg/ml"}, "[4]": {"system": "TR146 buccal cell line", "test": "Pre-formulation permeability of Carvedilol/permeation agent binary mixes, TR146 cells on Transwell inserts"}, "[5]": {"system": "TR146 buccal cell line", "test": "Pre-formulation permeability of Piroxicam & permeation agent binary mixtures, TR146 cells on Transwell inserts", "conditions": "for % Cumulative Permeability (n = 3) 1 min / % Cumulative Permeability (n = 3) 2 min / % Cumulative Permeability (n = 3) 5 min / % Cumulative Permeability (n = 3) 15 min / % Cumulative Permeability (n = 3) 20 min / % Cumulative Permeability (n = 3) 30 min: Piroxicam 0.35 mg in donor"}, "[6]": {"system": "TR146 buccal cell line", "test": "Permeability of reconstituted Piroxicam freeze-dried ODT, TR146 cells on Transwell inserts", "type": "in vitro ADME"}, "[7]": {"test": "Measured pH of API/permeation agent mixtures and of dispersed ODTs", "type": "physicochemical"}, "[8]": {"test": "Theoretical percent ionized and un-ionized API at sample pH (Henderson-Hasselbach equation)", "type": "physicochemical", "conditions": "for Calculated % ionized / Calculated % unionized: Piroxicam at sample pH"}, "[9]": {"system": "TR146 buccal cell line", "conditions": "human, 1.74 mg/ml, pH 7"}, "[10]": {"test": "Physicochemical properties of model APIs and permeation agents (solubility, log P, pKa, HLB)"}, "[11]": {"conditions": "agent at 1:1 molar ratio to Piroxicam, CA after 20 and 30 minutes"}, "[12]": {"conditions": "agent at 1:1 molar ratio to Piroxicam, at 30 minutes"}, "[13]": {"conditions": "Piroxicam 0.7 mg/ml binary mixtures in distilled water, ^a after adjustment with 0.1M HCl"}}, "note": "Entries after “also recorded” stand apart in the source; their conditions may differ. Like-named read-outs stand apart in the source and are kept apart here."}
{"compound": "COc1ccccc1OCCNCC(O)COc1cccc2[nH]c3ccccc3c12", "note": "(stereo not shown) [Carvedilol]", "values": [{"measurement": "water solubility", "setting": "[1]", "value": 4.44, "unit": "µg/mL"}]}
{"compound": "CCCCCCCCCCCCO[C@@H]1O[C@H](CO)[C@@H](O[C@H]2O[C@H](CO)[C@@H](O)[C@H](O)[C@H]2O)[C@H](O)[C@H]1O", "note": "[DDM, Dodecyl-B-D-Maltoside]", "values": [{"measurement": "HLB value", "setting": "[1]", "value": 13.5}, {"measurement": "difference in Famotidine permeability vs control", "setting": "[2]; 1:1 molar ratio, at the 20 and 30 minute marks", "value": "no significant difference"}, {"measurement": "fold increase in Famotidine permeability vs control", "setting": "[2]; 1:1 molar ratio, first 5 through 15 minutes", "value": 3, "unit": "fold"}, {"measurement": "effect on Atenolol permeability vs control", "setting": "[3]", "value": "no statistically significant difference"}, {"measurement": "effect on Carvedilol permeability vs control", "setting": "[4]; PF127 at 2×CMC, other surfactants at 1:1 molar ratio", "value": "No significant effect"}, {"measurement": "effect on Piroxicam permeability vs control", "setting": "[5]; [11]", "value": "increased"}, {"measurement": "fold increase in Piroxicam percentage cumulative permeability vs control", "setting": "[5]; [12]", "value": 2.6, "unit": "fold"}, {"measurement": "percentage cumulative permeability of Piroxicam", "setting": "[5]; [12]", "value": 25.60, "unit": "%"}]}
{"compound": "CN1C(C(=O)Nc2ccccn2)=C(O)c2ccccc2S1(=O)=O", "note": "[Piroxicam]", "values": [{"measurement": "pKa", "setting": "[1]", "value": 5.1}, {"measurement": "water solubility", "setting": "[1]", "value": 143, "unit": "µg/mL"}]}
{"compound": "CCCCCCCCCCCCOS(=O)(=O)[O-].[Na+]", "note": "[SLS, Sodium Lauryl Sulfate]", "values": [{"measurement": "effect on permeability of Piroxicam ODT vs control", "setting": "[6]; 0.69% w/w and 3.49% w/w (PXM:SLS 5:1 and 1:1)", "value": "increased"}, {"measurement": "permeability of 3.49% w/w sample compared to 0.69% w/w sample", "setting": "[6]; Piroxicam ODT", "value": "marginally higher but statistically significant increase"}, {"measurement": "HLB value", "setting": "[1]", "value": 40}, {"measurement": "effect on Atenolol permeability vs control", "setting": "[3]", "value": "non-statistically significant increase"}, {"measurement": "effect on Piroxicam permeability vs control", "setting": "[5]; [11]", "value": "increased"}]}
{"compound": "CC(C)NCC(O)COc1ccc(CC(N)=O)cc1", "note": "(stereo not shown) [Sample 1ATL, Atenolol]", "values": [{"measurement": "pH", "setting": "[7]; Atenolol 1.74 mg/ml binary mixes in distilled water, ^a after 0.1M NaOH", "value": 10.58}, {"measurement": "pH", "setting": "[7]; measured pH of Atenolol (1.74 mg/ml)/permeation agent mixture in distilled water", "value": 10.58}, {"measurement": "% ionised", "setting": "[8]; Atenolol at sample pH", "value": 9.48, "unit": "%"}, {"measurement": "% unionised", "setting": "[8]; Atenolol at sample pH", "value": 90.52, "unit": "%"}]}
{"compound": "COc1ccccc1OCCNCC(O)COc1cccc2[nH]c3ccccc3c12", "note": "(stereo not shown) [Sample 1CAV, Carvedilol]", "values": [{"measurement": "pH", "setting": "[7]; Carvedilol 1.74 mg/ml binary mixes in water, ^a after 0.1M NaOH, ^b after 0.1M HCL", "value": 7}, {"measurement": "Calculated % ionised", "setting": "[8]; Carvedilol at sample pH", "value": 86.32, "unit": "%"}, {"measurement": "Calculated % unionised", "setting": "[8]; Carvedilol at sample pH", "value": 13.68, "unit": "%"}, {"measurement": "% Cumulative Permeability (n = 3) 1 min", "setting": "[9]; 1 min", "value": 0.02, "unit": "%"}, {"measurement": "% Cumulative Permeability (n = 3) 2 min", "setting": "[9]; 2 min", "value": 0.03, "unit": "%"}, {"measurement": "% Cumulative Permeability (n = 3) 5 min", "setting": "[9]; 5 min", "value": 0.03, "unit": "%"}, {"measurement": "% Cumulative Permeability (n = 3) 15 min", "setting": "[9]; 15 min", "value": 0.10, "unit": "%"}, {"measurement": "% Cumulative Permeability (n = 3) 20 min", "setting": "[9]; 20 min", "value": 0.13, "unit": "%"}, {"measurement": "% Cumulative Permeability (n = 3) 30 min", "setting": "[9]; 30 min", "value": 0.18, "unit": "%"}]}
{"compound": "NC(N)=Nc1nc(CSCCC(N)=NS(N)(=O)=O)cs1", "note": "[Sample 1FAM, Famotidine]", "values": [{"measurement": "Calculated % ionised", "setting": "[8]; Famotidine at sample pH", "value": 1.53, "unit": "%"}, {"measurement": "Calculated % unionised", "setting": "[8]; Famotidine at sample pH", "value": 98.47, "unit": "%"}, {"measurement": "% Cumulative Permeability (n = 3) 1 min", "setting": "[2]; Famotidine […], 0.5 ml in donor, 1 min", "value": 0.32, "unit": "%"}, {"measurement": "% Cumulative Permeability (n = 3) 2 min", "setting": "[2]; Famotidine […], 0.5 ml in donor, 2 min", "value": 0.84, "unit": "%"}, {"measurement": "% Cumulative Permeability (n = 3) 5 min", "setting": "[2]; Famotidine […], 0.5 ml in donor, 5 min", "value": 2.09, "unit": "%"}, {"measurement": "% Cumulative Permeability (n = 3) 15 min", "setting": "[2]; Famotidine […], 0.5 ml in donor, 15 min", "value": 7.81, "unit": "%"}, {"measurement": "% Cumulative Permeability (n = 3) 20 min", "setting": "[2]; Famotidine […], 0.5 ml in donor, 20 min", "value": 11.76, "unit": "%"}, {"measurement": "% Cumulative Permeability (n = 3) 30 min", "setting": "[2]; Famotidine […], 0.5 ml in donor, 30 min", "value": 19.98, "unit": "%"}]}
{"compound": "CN1C(C(=O)Nc2ccccn2)=C(O)c2ccccc2S1(=O)=O", "note": "[Sample 1PXM, Piroxicam]", "values": [{"measurement": "pH", "setting": "[7]; [13]", "value": 5.30}, {"measurement": "Calculated % ionized", "setting": "[8]", "value": 61.31, "unit": "%"}, {"measurement": "Calculated % unionized", "setting": "[8]", "value": 38.69, "unit": "%"}, {"measurement": "% Cumulative Permeability (n = 3) 1 min", "setting": "[5]", "value": 0.08, "unit": "%"}, {"measurement": "% Cumulative Permeability (n = 3) 2 min", "setting": "[5]", "value": 0.24, "unit": "%"}, {"measurement": "% Cumulative Permeability (n = 3) 5 min", "setting": "[5]", "value": 0.96, "unit": "%"}, {"measurement": "% Cumulative Permeability (n = 3) 15 min", "setting": "[5]", "value": 3.82, "unit": "%"}, {"measurement": "% Cumulative Permeability (n = 3) 20 min", "setting": "[5]", "value": 5.89, "unit": "%"}, {"measurement": "% Cumulative Permeability (n = 3) 30 min", "setting": "[5]", "value": 9.96, "unit": "%"}]}
{"compound": "CN1C(C(=O)Nc2ccccn2)=C(O)c2ccccc2S1(=O)=O", "note": "[Sample 3PXM, Piroxicam]", "values": [{"measurement": "pH", "setting": "[7]; [13]", "value": 6.64}, {"measurement": "Calculated % ionized", "setting": "[8]", "value": 97.20, "unit": "%"}, {"measurement": "Calculated % unionized", "setting": "[8]", "value": 2.80, "unit": "%"}, {"measurement": "% Cumulative Permeability (n = 3) 1 min", "setting": "[5]", "value": 0.13, "unit": "%"}, {"measurement": "% Cumulative Permeability (n = 3) 2 min", "setting": "[5]", "value": 0.41, "unit": "%"}, {"measurement": "% Cumulative Permeability (n = 3) 5 min", "setting": "[5]", "value": 1.60, "unit": "%"}, {"measurement": "% Cumulative Permeability (n = 3) 15 min", "setting": "[5]", "value": 5.88, "unit": "%"}, {"measurement": "% Cumulative Permeability (n = 3) 20 min", "setting": "[5]", "value": 7.91, "unit": "%"}, {"measurement": "% Cumulative Permeability (n = 3) 30 min", "setting": "[5]", "value": 11.24, "unit": "%"}]}
{"compound": "CCCCCCCCCC(=O)O", "note": "[capric acid, Capric acid]", "values": [{"measurement": "effect on Piroxicam permeability vs control", "setting": "[5]; [11]", "value": "significantly reduced"}]}
{"compound": "NCCCC[C@H](N)C(=O)O", "note": "[lysine, Lysine]", "values": [{"measurement": "pKa", "setting": "[10]", "value": "≥ 5"}, {"measurement": "effect on Piroxicam permeability", "setting": "[5]; 1:3 and 1:6 molar ratios Piroxicam to counterion", "value": "no significant enhancement"}]}
{"compound": "C[C@H](CCC(=O)[O-])[C@H]1CC[C@H]2[C@@H]3[C@H](O)C[C@@H]4C[C@H](O)CC[C@]4(C)[C@H]3C[C@H](O)[C@]12C.O.[Na+]", "note": "[sodium cholate hydrate, Sodium Cholate hydrate]", "values": [{"measurement": "effect on permeability of Piroxicam in ODT", "setting": "[6]; […] w/w, 0.5×CMC in aqueous dispersion", "value": "only slightly increased"}, {"measurement": "effect on Atenolol permeability vs control", "setting": "[3]", "value": "no statistical difference"}, {"measurement": "fold increase in Carvedilol percentage cumulative permeability vs control", "setting": "[4]; at/after 30 minutes", "value": "~2", "unit": "fold"}, {"measurement": "percentage cumulative permeability of Piroxicam", "setting": "[5]; agent at 1×CMC, at 30 minutes", "value": 39.52, "unit": "%"}, {"measurement": "percentage cumulative permeability of Piroxicam", "setting": "[5]; agent at 2×CMC, at 30 minutes", "value": 14.44, "unit": "%"}, {"measurement": "effect on Piroxicam permeability vs control", "setting": "[5]; bile salt at 0.5 CMC", "value": "slight, statistically non-significant increase"}, {"measurement": "fold increase in Piroxicam permeability vs control", "setting": "[5]; bile salt at 1 CMC, at 30 minutes", "value": 4, "unit": "fold"}, {"measurement": "effect on Piroxicam permeability vs control", "setting": "[5]; bile salt at 2 CMC, pH-adjusted using citric acid", "value": "slight and statistically non-significant"}, {"measurement": "fold increase in Piroxicam percentage cumulative permeability", "setting": "[5]; bile salt at 2 CMC, at the first minute", "value": 1.5, "unit": "fold"}]}
{"compound": "POE-(4)-sorbitan monolaurate [Tween 21]", "values": [{"measurement": "effect on Famotidine permeability vs control", "setting": "[2]", "value": "Neither PF127 nor Tween 21 showed an enhancement; also recorded: no increase in Famotidine permeability was observed"}, {"measurement": "effect on Piroxicam permeability vs control", "setting": "[5]; [11]", "value": "increased"}, {"measurement": "fold increase in Piroxicam percentage cumulative permeability vs control", "setting": "[5]; [12]", "value": 2.1, "unit": "fold"}, {"measurement": "percentage cumulative permeability of Piroxicam", "setting": "[5]; [12]", "value": 20.82, "unit": "%"}]}
{"compound": "Sorbitan monooleate [Span 80]", "values": [{"measurement": "fold increase in Famotidine permeability vs control", "setting": "[2]; 1:1 molar ratio, time not stated", "value": 2, "unit": "fold"}, {"measurement": "effect on Piroxicam permeability vs control", "setting": "[5]; [11]", "value": "reduce the Piroxicam permeability significantly"}]}
